We go through ten compounds from US20030166932A1 (priority 2002, published 2003).

Test [1] concerns the target T1, RXRβ (UniProt P28704).
T1 sequence (P28704 1-520): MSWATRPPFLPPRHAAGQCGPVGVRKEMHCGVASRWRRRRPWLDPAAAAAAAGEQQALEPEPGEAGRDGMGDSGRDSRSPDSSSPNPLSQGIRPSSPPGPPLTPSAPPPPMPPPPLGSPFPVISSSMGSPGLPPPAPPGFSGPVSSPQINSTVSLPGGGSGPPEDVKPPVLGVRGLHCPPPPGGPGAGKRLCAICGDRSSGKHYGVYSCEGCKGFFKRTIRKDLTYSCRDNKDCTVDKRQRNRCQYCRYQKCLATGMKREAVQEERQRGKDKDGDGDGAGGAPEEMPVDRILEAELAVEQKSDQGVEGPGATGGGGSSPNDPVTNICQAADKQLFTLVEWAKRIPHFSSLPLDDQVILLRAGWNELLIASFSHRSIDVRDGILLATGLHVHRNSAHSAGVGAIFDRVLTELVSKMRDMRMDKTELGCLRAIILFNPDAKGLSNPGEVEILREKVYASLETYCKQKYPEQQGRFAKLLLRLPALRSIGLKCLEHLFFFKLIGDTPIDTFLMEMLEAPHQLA
As to the kind of experiment: holoreceptor transactivation assay. The class given is cell-based. The following applies: for EC50: NA = Not Active, read-out: RXR Trans. EC50 (nM) β; for % efficacy, RXR Trans. β: relative to 10^−6 M AGN 194204.
Source text: (§1) The results obtained in this assay are expressed in EC50 numbers, as they are also in the chimeric receptor transactivation assay. The results of ligand binding assay are expressed in Kd numbers.
(§2) Particularly, the transactivation data pertaining to RAR receptors were obtained in the chimeric assay, and the data pertaining to transactivation of RXR receptors were obtained in the holoreceptor transactivation assay.

Test [2] concerns the target T2, RXRγ (UniProt P28705).
T2 sequence (P28705 1-463): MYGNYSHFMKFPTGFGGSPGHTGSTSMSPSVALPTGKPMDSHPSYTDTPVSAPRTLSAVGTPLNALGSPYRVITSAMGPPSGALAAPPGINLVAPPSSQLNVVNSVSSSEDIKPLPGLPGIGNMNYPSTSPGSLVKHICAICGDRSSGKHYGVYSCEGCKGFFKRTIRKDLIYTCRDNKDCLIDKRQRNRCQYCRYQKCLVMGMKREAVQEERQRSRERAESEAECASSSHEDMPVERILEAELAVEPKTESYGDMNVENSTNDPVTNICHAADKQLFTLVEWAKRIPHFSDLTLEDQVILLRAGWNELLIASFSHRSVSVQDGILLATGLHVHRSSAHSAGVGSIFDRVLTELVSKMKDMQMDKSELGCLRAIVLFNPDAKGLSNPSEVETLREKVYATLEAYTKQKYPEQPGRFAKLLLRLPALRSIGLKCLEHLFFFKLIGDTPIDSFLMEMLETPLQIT
The experiment in a line: holoreceptor transactivation assay. The format is cell-based. Conditions: for EC50: NA = Not Active, read-out: RXR Trans. EC50 (nM) Y; for % efficacy, RXR Trans. Y: relative to 10^−6 M AGN 194204.
Source text: as §1, §2

The target in a further test is T3, RARβ (Homo sapiens, UniProt P10826).
T3 sequence (P10826 1-455): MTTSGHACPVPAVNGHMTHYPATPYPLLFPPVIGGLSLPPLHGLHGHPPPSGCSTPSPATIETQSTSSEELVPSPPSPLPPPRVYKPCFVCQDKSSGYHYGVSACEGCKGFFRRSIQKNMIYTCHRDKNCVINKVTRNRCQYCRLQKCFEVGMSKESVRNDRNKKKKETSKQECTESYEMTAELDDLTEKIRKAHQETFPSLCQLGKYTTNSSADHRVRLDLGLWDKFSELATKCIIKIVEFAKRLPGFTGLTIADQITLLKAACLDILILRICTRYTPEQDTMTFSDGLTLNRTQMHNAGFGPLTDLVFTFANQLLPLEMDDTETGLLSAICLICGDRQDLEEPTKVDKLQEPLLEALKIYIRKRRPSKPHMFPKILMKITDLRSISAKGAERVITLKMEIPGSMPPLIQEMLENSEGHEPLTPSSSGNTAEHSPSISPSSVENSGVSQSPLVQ
As to the kind of experiment: ligand binding assay. Conditions: read-out: RAR Bind. Ki (nM) β.

The target in a further test is T4, RARγ (Homo sapiens, UniProt P13631).
T4 sequence (P13631 1-454): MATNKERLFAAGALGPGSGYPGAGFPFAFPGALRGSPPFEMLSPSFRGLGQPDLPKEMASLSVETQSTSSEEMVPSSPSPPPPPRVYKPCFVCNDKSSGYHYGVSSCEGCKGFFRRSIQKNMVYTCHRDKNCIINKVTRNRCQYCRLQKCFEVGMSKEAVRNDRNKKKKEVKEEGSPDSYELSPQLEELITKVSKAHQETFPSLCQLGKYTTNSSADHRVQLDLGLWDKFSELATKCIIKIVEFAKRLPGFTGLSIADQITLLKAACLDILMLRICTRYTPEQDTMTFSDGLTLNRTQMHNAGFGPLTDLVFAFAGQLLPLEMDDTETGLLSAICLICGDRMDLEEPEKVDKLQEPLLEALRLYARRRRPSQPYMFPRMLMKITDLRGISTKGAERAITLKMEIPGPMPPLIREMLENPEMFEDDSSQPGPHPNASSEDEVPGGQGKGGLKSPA
As to the kind of experiment: ligand binding assay. Conditions: read-out: RAR Bind. Ki (nM) Y.

Test [3] addresses T1, RXRβ. As to the kind of experiment: ligand binding assay. Conditions: read-out: RXR Bind Ki (nM) β.
Source text: as §1, §2
Test [4] deals with T2, RXRγ. As to the kind of experiment: ligand binding assay. The following applies: read-out: RXR Bind Ki (nM) Y.
The target of test [5] is T5, RXRα (Homo sapiens, UniProt P19793).
T5 sequence (P19793 1-462): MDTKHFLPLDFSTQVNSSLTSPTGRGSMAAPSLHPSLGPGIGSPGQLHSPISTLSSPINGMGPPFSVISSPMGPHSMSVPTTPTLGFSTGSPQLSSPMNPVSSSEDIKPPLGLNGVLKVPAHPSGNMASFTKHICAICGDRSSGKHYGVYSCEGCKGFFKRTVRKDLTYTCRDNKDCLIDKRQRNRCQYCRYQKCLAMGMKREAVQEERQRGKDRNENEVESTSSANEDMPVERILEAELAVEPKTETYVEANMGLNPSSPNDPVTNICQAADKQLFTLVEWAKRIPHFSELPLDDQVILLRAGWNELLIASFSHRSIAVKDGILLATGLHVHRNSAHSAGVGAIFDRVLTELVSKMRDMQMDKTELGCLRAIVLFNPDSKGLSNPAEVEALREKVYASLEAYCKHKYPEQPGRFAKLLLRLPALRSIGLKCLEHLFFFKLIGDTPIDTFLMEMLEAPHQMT
The experiment in a line: ligand binding assay.
Source text: as §1, §2

In test [6] the target is T5, RXRα. As to the kind of experiment: holoreceptor transactivation assay. Conditions: for Emax: read-out: % efficacy, RXR Trans. α.
Source text: as §1, §2

Source text for RARβ: as §1, §2
Source text for RARγ: as §1, §2

A word on the EC50: it is the concentration needed to bring the measured effect to its halfway point. What is called Ki is a dissociation constant, usually derived from enzyme kinetics or from competition with a known ligand. Take `CCN(c1ccc(C(=O)O)cc1)c1ccc2c(c1)C(C(C)(C)C)=CCC2(C)C` [Compound 88]: the EC50 at RXRβ [1] came to 41 nM; at RXRγ [2], 5 nM; at RXRα [6], 4 nM. Also, on RXRβ [1], the “% efficacy, RXR Trans. β” value is “(100) %”. The “% efficacy, RXR Trans. Y” value at RXRγ [2] is recorded as “(120) %”. The Ki at RARβ is over 10000 nM; at RARγ, 3500 nM; on RXRβ [3] it was 12 nM; on RXRγ [4], 21 nM; at RXRα [5], 3 nM. For the same compound, the Emax on RXRα [6] is 114%.
As to `CCCN(c1ccc(C(=O)O)cc1)c1cc2c(cc1C)C(C)=CCC2(C)C` [Compound 46, 4-[n-Propyl(3,5,8,8-tetramethyl-7,8-dihydronaphthalen-2-yl)amino]benzoic acid], the EC50 on RXRβ [1] was over 1000 nM. The “% efficacy, RXR Trans. β” value on RXRβ [1] was “(8) %”. The “% efficacy, RXR Trans. Y” value on RXRγ [2] is “(65) %”. The Ki at RARβ, on RARγ, at RXRβ [3], at RXRγ [4] and at RXRα [5] was over 10000 nM each time. Besides, the Emax on RXRα [6] was 55%.
Regarding `CC1=CCC(C)(C)c2cc(N(C)c3ccc(C(=O)O)cc3)c(C)cc21` [Compound 44, 4-[Methyl(3,5,8,8-tetramethyl-7,8-dihydronaphthalen-2-yl)amino]benzoic acid], the EC50 at RXRγ [2] and at RXRα [6] was over 1000 nM each time. Also, on RXRγ [2], the “% efficacy, RXR Trans. Y” value was “(15) %”. The inhibition constant (Ki) is over 10000 nM at RARβ; over 10000 nM at RARγ; over 1000 nM on RXRβ [3]; over 1000 nM at RXRγ [4]; over 1000 nM at RXRα [5]. In addition, the Emax at RXRα [6] turned out to be 30%.
On to `CCN(c1ccc(C(=O)O)cc1)c1cc2c(cc1OC)C(C)(C)CC=C2C(C)C` [Compound 148, 4-[Ethyl-(8-isopropyl-3-methoxy-5,5-dimethyl-5,6-dihydronaphthalen-2-yl)amino]benzoic acid], for which the EC50 at RXRβ [1] is 8 nM; at RXRγ [2], 2 nM; on RXRα [6], 0.5 nM. In addition, the “% efficacy, RXR Trans. β” value at RXRβ [1] is on record as “(63) %”. Further, on RXRγ [2], the “% efficacy, RXR Trans. Y” value is reported as “(101) %”. The Ki at RARβ is 7500 nM; on RARγ it was over 10000 nM; on RXRβ [3], 15 nM; at RXRγ [4], 37 nM; on RXRα [5] it was 5 nM. Besides, the Emax at RXRα [6] was 64%.
`CCN(c1ccc(C(=O)O)cc1)c1cc2c(cc1OCc1ccccc1)C(C)(C)CC=C2C(C)C` [Compound 154, 4-[(3-Benzyloxy-8-isopropyl-5,5-dimethyl-5,6-dihydronaphthalen-2-yl)ethylamino]benzoic acid]: the Ki amounted to 1800 nM at RARβ; 6200 nM at RARγ; 19 nM at RXRβ [3]; 41 nM on RXRγ [4]; 3 nM on RXRα [5].
The like results for `CCN(c1ccc(C(=O)O)cc1)c1cc2c(cc1OCc1ccccc1)C(C)(C)CC=C2C(C)(C)C` [Compound 158] were, in that order, 374 nM, 881 nM, 3 nM, 161 nM and 4 nM.
Regarding `CCN(c1ccc2c(c1)C(C)=CCC2(C)C)c1ccc(C(=O)O)cn1` [Compound 170, 6-[Ethyl-(5,5,8-trimethyl-5,6-dihydro-naphthalen-2-yl)-amino]-nicotinic acid], the EC50 on RXRβ [1] came to 379 nM; at RXRγ [2] it was 67 nM; on RXRα [6], 33 nM. Moreover, the “% efficacy, RXR Trans. β” value at RXRβ [1] is reported as “(110) %”. In addition, the “% efficacy, RXR Trans. Y” value at RXRγ [2] was “(127) %”. For the same compound, the Ki is over 10000 nM at RARβ; over 10000 nM on RARγ; 190 nM at RXRβ [3]; 61 nM on RXRγ [4]; 64 nM at RXRα [5]. Further, the Emax at RXRα [6] came out at 113%.
`CCCOc1cc2c(cc1N(CC)c1ccc(C(=O)O)cc1)C(C(C)C)=CCC2(C)C` [Compound 150, 4-[Ethyl-(8-isopropyl-5,5-dimethyl-3-n-propoxy-5,6-dihydronaphthalen-2-yl)amino]benzoic acid]: the Ki on RARβ was determined as 3800 nM; on RARγ it was 7900 nM; at RXRβ [3] it was 208 nM; on RXRγ [4] it was 352 nM; at RXRα [5], 61 nM.
`CCN(c1ccc(C(=O)O)cc1)c1cc2c(cc1C)C(C)=CCC2(C)C` [Compound 45, 4-[Ethyl(3,5,8,8-tetramethyl-7,8-dihydronaphthalen-2-yl)amino]benzoic acid]: the EC50 at RXRγ [2] is over 1000 nM. Moreover, the “% efficacy, RXR Trans. Y” value at RXRγ [2] was “(25) %”. For the same compound, the Ki is over 10000 nM at RARβ; over 10000 nM on RARγ; over 1000 nM at RXRβ [3]; over 1000 nM on RXRγ [4]; over 1000 nM at RXRα [5]. The Emax at RXRα [6] is 50%.
With `CCN(c1ccc2c(c1)C(C(C)C)=CCC2(C)C)c1ccc(C(=O)O)cn1` [Compound 172, 6-[Ethyl-(8-isopropyl5,5-dimethyl-5,6-dihydro-naphthalen-2-yl)-amino]-nicotinic acid], the results for the EC50 at RXRβ [1], on RXRγ [2] and at RXRα [6] were 13 nM, 2 nM and 2 nM, respectively. For the same compound, the “% efficacy, RXR Trans. β” value at RXRβ [1] is listed as “(112) %”. The “% efficacy, RXR Trans. Y” value at RXRγ [2] is reported as “(118) %”. For the same compound, the Ki was 6000 nM on RARβ; over 10000 nM at RARγ; 4 nM on RXRβ [3]; 6 nM on RXRγ [4]; 0.7 nM on RXRα [5]. The Emax on RXRα [6] worked out at 109%.
